Source: US20120288482A1, “THERAPEUTIC AGENT (Y-39983) FOR CORNEAL ENDOTHELIAL DYSFUNCTION” (priority 2009, published 2012)

Legend:
[1] = tested on: cultured monkey corneal endothelial cells; settings: in vitro; cited from earlier work
[2] = tested on: cultured corneal endothelial cells; settings: cited from earlier work
corneal endothelium = settings: instillation of 10 mM; cited from earlier work
[3] = tested on: rabbit corneal endothelial cells; test: Wound healing model of cultured corneal endothelial cells (Example 5); type: cell-based
Description: In this Example, rabbit corneal endothelial cells prepared in the same manner as in Example 4 were used. In this Example, moreover, test substances and control substance prepared in the same manner as in Example 4 were used. Collected rabbit corneal endothelial cells were diluted with a culture medium (about 4 ml, DMEM (Invitrogen, Cat. #12320-032), 10% FBS, 2 ng/mL bFGF (Invitrogen, Cat. #13256-029) and 1% penicillin/streptomycin (Invitrogen, Cat. #15070-063)), and seeded at a division ratio of 1:4 by 2 ml per well in a 6 well plate (Corning Incorporated, Cat. #3516). The cells were incubated to confluent under conditions of 37° C. and 5% CO2. Wound was created in the confluent cells using 1000 μL chip (Molecular BioProducts, 2279). Then, each medicament was added to the culture medium to a final concentration of 0.09, 0.32, 0.95, 3.16 and 9.47 μM compound (I), 10 μM Y-27632 and 10 μM Fasudil. As a control, DMSO was added to a final concentration of 0.04%. At 6 hours, 12 hours and 24 hours after addition of each medicament, the width of the wound was photographed over time, and the width of the wound was evaluated by image analysis.

[4] = tested on: rabbit corneal endothelial cells; test: Adhesion of cultured corneal endothelial cells to culture plate (Example 6); type: cell-based; settings: 3 hours after seeding
Description: In this Example, rabbit corneal endothelial cells prepared in the same manner as in Example 4 were used. In this Example, moreover, test substances and control substance prepared in the same manner as in Example 4 were used. The collected rabbit corneal endothelial cells were diluted, and a culture medium (about 4 ml, DMEM (Invitrogen, Cat. #12320-032), 10% FBS, 2 ng/mL bFGF (Invitrogen, Cat. #13256-029) and 1% penicillin/streptomycin (Invitrogen, Cat. #15070-063)) was added to the cells. Then, each medicament was added to the culture medium to final concentrations of 0.09, 0.32, 0.95, 3.16 and 9.47 μM compound (I), 10 μM Y-27632 and 10 μM Fasudil. As a control, DMSO was added to a final concentration of 0.04%. These cells were seeded in a 96 well plate (Corning Incorporated, Cat. #3595) at 1000 cells/well. After 3 hours from the seeding, suspended cells were removed, and adhered cells were counted by CellTiter-Glo (registered trade mark) Luminescent Cell Viability Assay (promega Cat. #G7572).

| SMILES | apoptosis [1] | cell adhesion [1] | cell cycle [1] | cell adhesion [2] | wound healing of corneal endothelium (corneal endothelium) | wound healing effect ([3]; 0.95 μM, student's t-test) | wound width ([3]; 9.47 μM, versus control) | wound width ([3]; 0.09-3.16 μM, 24 hours after addition, Dunnett's test) | concentration showing a wound healing effect ([3]; in vitro wound healing model, Example 5) | number of adherent cells ([4]; 0.32 μM) | concentration at which the number of adherent cells reached plateau [4] | number of adherent cells ([4]; all addition groups (0.09-9.47 μM)) |
| --- | --- | --- | --- | --- | --- | --- | --- | --- | --- | --- | --- | --- |
| C[C@@H](N)[C@H]1CC[C@H](C(=O)Nc2ccncc2)CC1 [Y-27632, reference compound] | suppression of apoptosis | promotion of cell adhesion | promotion of cell cycle | promoting cell adhesion | promotes wound healing of corneal endothelium | – | – | – | – | – | – | – |
| C[C@@H](N)c1ccc(C(=O)Nc2ccnc3[nH]ccc23)cc1.Cl [compound (I), (R)-(+)-N-(1H-pyrrolo[2,3-b]pyridin-4-yl)-4-(1-aminoethyl)benzamide monohydrochloride] | – | – | – | – | – | showed a wound healing effect from the early stages of the addition | no statistically significant difference from the control group | significantly decreased | 0.09 to 3.16 µM | almost the same level as 10 μM Y-27632 | not less than 0.32 μM | increased the number of adherent cells |
